# Columns and labels:
# Assay type in all cases: cell-based
# M4 muscarinic receptor = target: T1, M4 muscarinic receptor (Homo sapiens, UniProt P08173); test: Functional mobilization of intracellular calcium (FLIPR), M4-CHO cells; settings: for M4 Activity: M4-CHO cells, calcium mobilization (FLIPR)
# T1 construct: expressed in transfected cells; host or cells: CHO (M4-CHO)
# T1 sequence (P08173 1-479): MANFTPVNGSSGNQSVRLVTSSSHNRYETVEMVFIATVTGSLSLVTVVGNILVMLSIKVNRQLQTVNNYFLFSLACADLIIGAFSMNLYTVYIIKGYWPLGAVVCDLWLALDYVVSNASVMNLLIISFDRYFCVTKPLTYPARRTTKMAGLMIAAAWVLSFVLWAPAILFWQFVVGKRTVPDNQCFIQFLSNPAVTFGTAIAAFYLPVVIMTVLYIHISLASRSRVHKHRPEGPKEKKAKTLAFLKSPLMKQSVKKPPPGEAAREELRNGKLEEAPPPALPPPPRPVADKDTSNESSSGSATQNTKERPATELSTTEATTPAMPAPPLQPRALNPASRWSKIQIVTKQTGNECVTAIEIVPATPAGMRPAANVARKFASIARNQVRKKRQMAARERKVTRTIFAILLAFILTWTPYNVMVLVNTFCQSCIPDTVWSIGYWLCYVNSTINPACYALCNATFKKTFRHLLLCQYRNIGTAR
# Protocol: (§1) Functional Mobilization of Intracellular Calcium to Determine Muscarinic Receptor Activity:
# (§2) CHO cells expressing muscarinic receptors (M1 to M5) are grown as monolayers in tissue culture flasks at 37° C. in a humidified atmosphere containing 5% CO2 and passaged every 3-5 days. The growth media is Dulbecco's modified eagles medium (DMEM, Gibco Cat #12430-054), containing 25 mM Hepes and supplemented with Fetal Bovine Serum (Hyclone, cat #SH30071.03), 0.1 mM of MEM non-essential amino acids (GIBCO, Cat #11140-050), 1 mM MEM Sodium Pyruvate (GIBCO Cat #11360-070) and 100 units/ml of Penicillin G and 100 μg/ml of Streptomycin (GIBCO Cat #15140-122). The recombinant muscarinic receptor cell lines are grown under antibiotic pressure with media containing 25 μg/ml zeocin and 500 μg/ml G418 (M1-CHO), 4 μg/ml puromycin, 50 μg/ml zeocin and 2.5 μg/ml blasticidin (M2 and M4-CHO) or 50 μg/ml zeocin and 4 μg/ml puromycin (M3 and M5-CHO).
# (§3) Cells are harvested at 80-90% confluence using Versene (GIBCO Cat #15040-066), collected by centrifugation and seeded 18-24 hrs prior to running the calcium assay at a density of 5,000-10,000 cells/well in […], clear-bottomed 384-well plates (BD Biocoat, poly-D-lysine, Cat #356663). The day of the experiment, the cells are washed with a plate washer (Bioteck Instruments, ELX 405) using bath 1 buffer (140-mM NaCl, 4.5-mM KCl, 2-mM CaCl2, 1-mM MgCl2, 10-mM Hepes-Na, 10-mM Glucose, pH 7.4, with NaOH) containing 1 mM Probenecid. Next, the calcium dye Fluo-3 (25 μl/well of Fluo-3 AM at 4 μM, Molecular Probes F-1241, in Bath 1 buffer containing 1 mM Probenecid) is added to the 25 μl of Bath 1 remaining in each well after the plate wash and the dye is loaded at 37° C. in the tissue culture incubator for 60-90 min. The fluorescent dye is removed using the plate washer with Bath 1 containing 1 mM Probenecid, leaving 25 μl/well of this solution after the wash. Alternatively, cells can be loaded with the calcium indicator from Molecular Devices (Calcium 3 Assay Reagents, Cat #R7181) adding 5 μl of a 5× solution dye in Bath 1 containing 1 mM Probenecid (10 ml per dye flask cat #R7182 to generate a solution 20×) to 20 μl of the same buffer. After loading for 60 min, the experiment can be run without having to remove the dye.
# (§4) Compounds are prepared at a 2× fold concentration in a 96-well plate (round bottom, Costar Corning cat #3656), by reconstituting the pre-spotted compounds in bath 1 containing 1 mM probenecid. The final concentration DMSO is 0.5%, and the amount of DMSO is normalized across the assay plate. To determine an agonist action of the compounds on muscarinic receptors, the reconstituted compounds are added (25 μl compound/well) to the cell assay plate (containing 25 μl/well) using the multi-channel robotic system of the FLIPR 3 Instrument (Molecular Devices, Sunnyvale, Calif.). To determine a functional inhibitory action of the compounds on muscarinic receptors, the reconstituted compounds are added (25 μl compound/well) to the assay plate and pre-incubated for 15 min prior to adding 25 μl of Carbachol at 3× the EC80 for each muscarinic subtype. Alternatively, the compounds can be co-applied simultaneously with the agonist. In both assay modes, the fluorescence is recorded for 60 sec (excitation wavelength is […] and emission wavelength 540 nm) using the FLIPR 3 instrument.
# (§5) The potency, efficacy and selectivity of the muscarinic compounds were evaluated by screening the compound activity across the whole family (M1 to M5 cells). Compounds were also screened for activity on other proteins such as other GPCRs and ion channels to determine selectivity on M4 receptors.
# (§6) Examples of activities and efficacies of the muscarinic compounds of formulae (I, Ia, Ib, and II) on modulating M1, M2, M3 and M4 receptors are shown below in Table 3. […]
# M1 muscarinic receptor = target: T2, M1 muscarinic receptor (Homo sapiens, UniProt P11229); test: Functional mobilization of intracellular calcium (FLIPR), M1-CHO cells; settings: for M1 Activity: M1-CHO cells, calcium mobilization (FLIPR)
# T2 construct: expressed in transfected cells; host or cells: CHO (M1-CHO)
# T2 sequence (P11229 1-460): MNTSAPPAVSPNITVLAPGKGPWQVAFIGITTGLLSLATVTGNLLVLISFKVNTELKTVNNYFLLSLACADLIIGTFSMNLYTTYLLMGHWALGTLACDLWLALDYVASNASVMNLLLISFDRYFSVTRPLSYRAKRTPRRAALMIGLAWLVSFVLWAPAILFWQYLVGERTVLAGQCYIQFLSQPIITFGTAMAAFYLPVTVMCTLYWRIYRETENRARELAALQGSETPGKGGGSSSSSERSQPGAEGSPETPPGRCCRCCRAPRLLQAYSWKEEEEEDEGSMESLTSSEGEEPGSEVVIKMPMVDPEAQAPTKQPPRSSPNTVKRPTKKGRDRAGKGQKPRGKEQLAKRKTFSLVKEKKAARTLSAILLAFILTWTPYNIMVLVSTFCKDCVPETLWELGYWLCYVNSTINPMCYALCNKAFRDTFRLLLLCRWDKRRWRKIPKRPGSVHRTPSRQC
# Protocol: as §1, §2, §3, §4, §5, §6
# M2 muscarinic receptor = target: T3, M2 muscarinic receptor (Homo sapiens, UniProt P08172); test: Functional mobilization of intracellular calcium (FLIPR), M2-CHO cells; settings: for M2 Activity: M2-CHO cells, calcium mobilization (FLIPR)
# T3 construct: expressed in transfected cells; host or cells: CHO (M2-CHO)
# T3 sequence (P08172 1-466): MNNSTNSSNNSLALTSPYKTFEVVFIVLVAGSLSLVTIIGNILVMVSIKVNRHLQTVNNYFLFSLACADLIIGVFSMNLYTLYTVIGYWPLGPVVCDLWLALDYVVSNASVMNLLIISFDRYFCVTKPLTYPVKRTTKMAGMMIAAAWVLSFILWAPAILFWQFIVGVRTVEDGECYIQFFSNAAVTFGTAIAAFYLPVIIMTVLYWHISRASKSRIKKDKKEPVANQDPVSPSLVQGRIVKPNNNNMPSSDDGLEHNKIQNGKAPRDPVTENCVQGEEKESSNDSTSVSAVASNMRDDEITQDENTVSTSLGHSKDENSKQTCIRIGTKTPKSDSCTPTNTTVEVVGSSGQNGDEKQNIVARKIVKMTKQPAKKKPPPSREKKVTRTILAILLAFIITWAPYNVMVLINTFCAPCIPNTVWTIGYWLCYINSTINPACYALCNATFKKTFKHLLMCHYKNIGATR
# Protocol: as §1, §2, §3, §4, §5, §6
# [1] = 100% efficacy = maximum response obtained with the Carbachol control
# [2] = 100% efficacy is the maximum response obtained with the Carbachol control
SMILES,Emax (M4 muscarinic receptor; [1]),M4 Activity (M4 muscarinic receptor),Emax (M1 muscarinic receptor; [1]),M1 Activity (M1 muscarinic receptor),Emax (M2 muscarinic receptor; [1]),M2 Activity (M2 muscarinic receptor),Emax (M4 muscarinic receptor; [2]),Emax (M1 muscarinic receptor; [2]),Emax (M2 muscarinic receptor; [2])
COc1ccc(C2CCN(C3C[C@H]4CC[C@H](C3)C4)CC2)c(C)c1 (stereo partly drawn) [Compound 244],< 25%,+ (activity was measured to be greater than 5.0 μM),< 25%,+ (activity was measured to be greater than 5.0 μM),< 25%,+ (activity was measured to be greater than 5.0 μM),–,–,–
COc1ccc(F)cc1C1CCN(C2CCC3CCC2C3)CC1 (stereo not drawn) [Compound 412],–,+++ (activity was measured to be less than 1.0 μM),–,+++ (activity was measured to be less than 1.0 μM),–,++ (activity was measured to be from 1.0 μM to 5.0 μM),25 to 100%,25 to 100%,< 25%
COc1ccccc1C1(C#N)CCN(C2CCC3CCC2C3)CC1 (stereo not drawn) [Compound 240],25 to 100%,+++ (activity was measured to be less than 1.0 μM),25 to 100%,++ (activity was measured to be from 1.0 μM to 5.0 μM),25 to 100%,++ (activity was measured to be from 1.0 μM to 5.0 μM),–,–,–
CCCC1CCC(N2CCC(c3cc(F)ccc3OC)CC2)CC1 (stereo not drawn) [Compound 125],25 to 100%,+++ (activity was measured to be less than 1.0 μM),25 to 100%,+++ (activity was measured to be less than 1.0 μM),25 to 100%,++ (activity was measured to be from 1.0 μM to 5.0 μM),–,–,–
COc1ccccc1C1(C#N)CCN(C2CCCCC2)CC1 [Compound 348],25 to 100%,++ (activity was measured to be from 1.0 μM to 5.0 μM),25 to 100%,+ (activity was measured to be greater than 5.0 μM),< 25%,+ (activity was measured to be greater than 5.0 μM),–,–,–
COc1ccc(Cl)cc1C1(O)CCN(C[C@@H]2C[C@H]3C=C[C@H]2C3)CC1 [Compound 319],25 to 100%,++ (activity was measured to be from 1.0 μM to 5.0 μM),< 25%,+ (activity was measured to be greater than 5.0 μM),< 25%,+ (activity was measured to be greater than 5.0 μM),–,–,–
COc1ccccc1C1(C#N)CCN(C[C@H]2C[C@H]3CC[C@H]2C3)CC1 [Compound 172],25 to 100%,+++ (activity was measured to be less than 1.0 μM),25 to 100%,+++ (activity was measured to be less than 1.0 μM),25 to 100%,+++ (activity was measured to be less than 1.0 μM),–,–,–
CCCC1CCC(N2CCC(O)(c3cc(Cl)ccc3OC)CC2)CC1 (stereo not drawn) [Compound 164],25 to 100%,++ (activity was measured to be from 1.0 μM to 5.0 μM),< 25%,+ (activity was measured to be greater than 5.0 μM),< 25%,+ (activity was measured to be greater than 5.0 μM),–,–,–
CCOC(=O)N1C2CCC1CC(N1CCC(O)(c3cc(F)ccc3C)CC1)C2 (stereo not drawn) [Compound 95],25 to 100%,+++ (activity was measured to be less than 1.0 μM),25 to 100%,+++ (activity was measured to be less than 1.0 μM),< 25%,+ (activity was measured to be greater than 5.0 μM),–,–,–
COc1ccc(NC(C)=O)cc1C1CCN(CC2C[C@H]3CC[C@H]2C3)CC1 (stereo partly drawn) [Compound 166],< 25%,+ (activity was measured to be greater than 5.0 μM),< 25%,+ (activity was measured to be greater than 5.0 μM),< 25%,+ (activity was measured to be greater than 5.0 μM),–,–,–
Cc1ccc(Cl)cc1C1CCN(CC2C[C@H]3CC[C@H]2C3)CC1 (stereo partly drawn) [Compound 315],25 to 100%,+++ (activity was measured to be less than 1.0 μM),25 to 100%,+ (activity was measured to be greater than 5.0 μM),25 to 100%,+ (activity was measured to be greater than 5.0 μM),–,–,–
COc1ccccc1C1CCN(CC2CCC3CCC2C3)CC1 (stereo not drawn) [Compound 61],25 to 100%,++ (activity was measured to be from 1.0 μM to 5.0 μM),< 25%,+ (activity was measured to be greater than 5.0 μM),< 25%,+ (activity was measured to be greater than 5.0 μM),–,–,–
"CCOC(=O)N1CCC(N2CCC(C#N)(c3ccccc3OC)CC2)CC1 [Compound 245, ethyl 4-cyano-4-(2-methoxyphenyl)-1,4′-bipiperidine-1′-carboxylate]",25 to 100%,+++ (activity was measured to be less than 1.0 μM),25 to 100%,+++ (activity was measured to be less than 1.0 μM),< 25%,+ (activity was measured to be greater than 5.0 μM),–,–,–

# From patent publication US7880007B2, “Bicyclic substituted phenyl piperidine modulators of muscarinic receptors” (Vertex Pharmaceuticals Incorporated, priority 2004, dated 2011)
